Test results taken from US11839613B2, “Pyrimidine derivatives as PGE2 receptor modulators” (IDORSIA PHARMACEUTICALS LTD, priority 2017, dated 2023).
Like-named read-outs stand apart in the source and are kept apart here.

Tests used:
EP4 = EP4 (Homo sapiens (Human), UniProt P35408); experiment: hEP4 cAMP assay (BT549 breast cancer cells, HTRF cAMP); type: cell-based; settings: antagonistic activity, PGE2 6 nM
Method in brief: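 BT549 breast cancer cells (endogenous EP4) in HBSS/20 mM HEPES/0.2% BSA/2 mM IBMX preincubated 45 min at RT with compound, then stimulated 30 min at RT with 6 nM PGE2 (final). cAMP read by competitive HTRF immunoassay, signal inversely proportional to cAMP.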

PTGER4 (EP4) [1] = target: T1, PTGER4 (EP4) (Homo sapiens (Human), UniProt P35408)
EP2 = EP2 (Homo sapiens (Human), UniProt P43116); experiment: hEP2 cAMP assay (SF295 glioblastoma cells, HTRF cAMP); type: cell-based; settings: antagonistic activity
Method in brief: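 PGE2-driven cAMP accumulation was measured by HTRF in SF295 cells, which express endogenous EP2 only. Cells in assay buffer with 2 mM IBMX were pre-incubated 45 min at RT, then incubated 30 min at RT. Detection used competition between cellular cAMP and d2-cAMP for a cryptate anti-cAMP antibody.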

PTGER2 (EP2) = PTGER2 (EP2) (Homo sapiens (Human), UniProt P43116); experiment: hEP2 b-arrestin assay (PathHunter HEK 293 PTGER2 b-arrestin cells); type: cell-based; settings: antagonistic activity, beta-arrestin assay; read-out: hEP2 b-arr IC50
Method: Plate is pre-incubated 15 minutes at 37° C. Then five microliters of PGE2 (final conc. 5 μM) are transferred into the assay plate. Plate is incubated 120 minutes at 37° C.
(each concentration is measured in duplicate)

PTGER4 (EP4) [2] = target: T1, PTGER4 (EP4); experiment: cell-based

Chain of PTGER2 (EP2) (P43116 whole entry): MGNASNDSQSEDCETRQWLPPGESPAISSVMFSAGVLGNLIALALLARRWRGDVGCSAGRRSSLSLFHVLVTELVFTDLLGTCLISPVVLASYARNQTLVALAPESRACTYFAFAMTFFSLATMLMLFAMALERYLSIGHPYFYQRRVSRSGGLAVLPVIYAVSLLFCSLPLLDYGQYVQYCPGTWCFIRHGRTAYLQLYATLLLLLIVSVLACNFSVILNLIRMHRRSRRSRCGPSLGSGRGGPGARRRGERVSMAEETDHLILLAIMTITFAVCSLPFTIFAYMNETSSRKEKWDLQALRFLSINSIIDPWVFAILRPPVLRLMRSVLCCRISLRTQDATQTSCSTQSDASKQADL
Chain of EP2 (P43116 whole entry): as above
T1 sequence (P35408 whole entry): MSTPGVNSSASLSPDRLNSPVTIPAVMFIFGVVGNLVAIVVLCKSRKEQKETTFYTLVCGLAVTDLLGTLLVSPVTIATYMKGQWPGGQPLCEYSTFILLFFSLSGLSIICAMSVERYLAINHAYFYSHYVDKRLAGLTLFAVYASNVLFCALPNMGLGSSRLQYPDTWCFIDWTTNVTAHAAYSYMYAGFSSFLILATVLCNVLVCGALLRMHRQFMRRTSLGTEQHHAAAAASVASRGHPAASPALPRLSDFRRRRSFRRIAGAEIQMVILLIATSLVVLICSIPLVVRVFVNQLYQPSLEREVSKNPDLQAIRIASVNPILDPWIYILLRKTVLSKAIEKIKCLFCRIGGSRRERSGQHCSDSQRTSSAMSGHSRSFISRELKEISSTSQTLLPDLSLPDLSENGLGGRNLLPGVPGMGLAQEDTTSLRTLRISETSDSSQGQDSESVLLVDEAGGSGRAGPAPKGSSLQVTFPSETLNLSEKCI
Chain of EP4 (P35408 whole entry): as above

IC50 (EP4)	IC50 (PTGER4 (EP4) [1])	IC50 (EP2)	IC50 (PTGER2 (EP2))	IC50 (EP4; BT549 cells)	IC50 (PTGER4 (EP4) [2])	Compound
8 nM	5 nM	269 nM				CCOc1cc(-c2cc(NCCc3cc4ccn(C)c4cc3F)ncn2)sc1C(=O)O [Ex 16]
11 nM	16 nM	249 nM				CCOc1cc(-c2cc(NCCc3cc4ccccc4c(Cl)c3OC)ncn2)sc1C(=O)O [Ex 19]
13 nM	20 nM	395 nM				CCOc1cc(-c2cc(NCCc3ccc4cccnc4c3C)ncn2)sc1C(=O)O [Ex 22]
18 nM	6 nM	7740 nM				CCOc1cc(-c2cc(NCCc3cc4ccccc4cc3OC(C)C)ncn2)sc1C(=O)O [Ex 31]
35 nM	21 nM	1220 nM				CCOc1cc(-c2cc(NCCc3ccc4cccc(F)c4c3)ncn2)sc1C(=O)O [Ex 66]
41 nM	86 nM	483 nM				C=Cc1c(CCNc2cc(-c3cc(OCC)c(C(=O)O)s3)ncn2)ccc2ccccc12 [Ex 75]
49 nM	79 nM	445 nM				CCOc1cc(-c2cc(NCCc3cc(F)c4ncccc4c3F)ncn2)sc1C(=O)O [Ex 86]
56 nM	40 nM	586 nM				CCOc1cc(-c2cc(NCCc3ccc4ncsc4c3)ncn2)sc1C(=O)O [Ex 91]
59 nM	25 nM	447 nM				CCOc1cc(-c2cc(NCCc3cc(C)c4c(c3)OCCO4)ncn2)sc1C(=O)O [Ex 95]
64 nM	33 nM	314 nM				CCOc1cc(-c2cc(NCCc3cc4cccnc4cc3F)ncn2)sc1C(=O)O [Ex 98]
74 nM	135 nM	831 nM				CCOc1cc(-c2cc(NCCc3cc4cnccc4cc3F)ncn2)sc1C(=O)O [Ex 106]
93 nM	42 nM	283 nM				CCOc1cc(-c2cc(NCCc3ccc4sccc4c3)ncn2)ccc1OCC(=O)O [Ex 121]
132 nM	91 nM	751 nM				CCOc1cc(-c2cc(NCCc3ccc4ccsc4c3)ncn2)ccc1OCC(=O)O [Ex 144]
144 nM	194 nM	619 nM				CCOc1cc(-c2cc(NCCc3cc4c(cc3Cl)NCCO4)ncn2)sc1C(=O)O [Ex 149]
164 nM	188 nM	333 nM				CCOc1cc(-c2cc(NCCc3cc4c(cc3Cl)OC(F)(F)O4)ncn2)sc1C(=O)O [Ex 165]
183 nM	128 nM	769 nM				CCOc1cc(-c2cc(NCCc3cc4c(cc3OC)NCCC4)ncn2)sc1C(=O)O [Ex 173]
186 nM	156 nM	280 nM				CCOc1cc(-c2cc(NCCc3cc4cccnc4cc3C)ncn2)sc1C(=O)O [Ex 177]
380 nM	788 nM	272 nM				CCOc1cc(-c2cc(NCCc3ccc4c(c3)CCS4)ncn2)ccc1C(=O)O [Ex 255]
538 nM	815 nM	269 nM				O=C(O)c1ccc(-c2cc(NCCc3ccc4scnc4c3)ncn2)cc1OC1CCC1 [Ex 291]
		250 nM	271 nM	38 nM	18 nM	CCc1cc(-c2cc(NCCc3cc(F)c4sccc4c3)ncn2)sc1C(=O)O [Example 455, 3-Ethyl-5-{6-[2-(7-fluoro-benzo[b]thiophen-5-yl)-ethylamino]-pyrimidin-4-yl}-thiophene-2-carboxylic acid]
		311 nM	129 nM	14 nM	21 nM	CCOc1cc(-c2cc(NCCc3cc(F)c4sccc4c3)ncn2)sc1CC(=O)O [Example 456, (3-Ethoxy-5-{6-[2-(7-fluoro-benzo[b]thiophen-5-yl)-ethylamino]-pyrimidin-4-yl}-thiophen-2-yl)-acetic acid]
		245 nM	313 nM	1400 nM	827 nM	CCOc1cc(-c2cc(NCCc3ccc4scc(C)c4c3)ncn2)ccc1C(=O)O [Example 465, 2-Ethoxy-4-{6-[2-(3-methyl-benzo[b]thiophen-5-yl)-ethylamino]-pyrimidin-4-yl}-benzoic acid]
		190 nM	206 nM	1210 nM	171 nM	CCOc1cc(-c2cc(NCCc3ccc4scc(C)c4c3)ncn2)ccc1OCC(=O)O [Example 466, (2-Ethoxy-4-{6-[2-(3-methyl-benzo[b]thiophen-5-yl)-ethylamino]-pyrimidin-4-yl}-phenoxy)-acetic acid]

Second part, the compound before the results:

Compound	IC50 (EP4)	IC50 (PTGER4 (EP4) [1])	IC50 (EP2)	IC50 (PTGER2 (EP2))	IC50 (EP4; BT549 cells)	IC50 (PTGER4 (EP4) [2])
CCOc1cc(-c2cc(NCCc3c(OC)cc4ccccc4c3F)ncn2)ccc1CC(=O)O [Ex 37]	22 nM	16 nM	281 nM			
CCOc1cc(-c2cc(NCCc3c(C#N)cc4ccccc4c3C)ncn2)ccc1C(=O)O [Ex 54]	27 nM	68 nM	331 nM			
CCOc1cc(-c2cc(NCCc3cc4ccsc4cc3C#N)ncn2)ccc1CC(=O)O [Ex 82]	46 nM	128 nM	251 nM			
CCOc1cc(-c2cc(NCCc3cc4ccccc4cc3C#N)ncn2)ccc1OCC(=O)O [Ex 84]	47 nM	19 nM	1280 nM			
CCOc1cc(-c2cc(NCCc3cc4ccccc4cc3OC(C)C)ncn2)ccc1OCC(=O)O [Ex 89]	54 nM	17 nM	19400 nM			
CCOc1cc(-c2cc(NCCc3cc4ccccc4cc3C#N)ncn2)ccc1C(=O)O [Ex 92]	57 nM	105 nM	1680 nM			
N#Cc1cc2c(cc1CCNc1cc(-c3ccc(C(=O)O)c(OC4CCC4)c3)ncn1)OCCO2 [Ex 113]	82 nM	179 nM	251 nM			
CCOc1cc(-c2cc(NCCc3cc4ccccc4cc3OC(F)F)ncn2)ccc1OCC(=O)O [Ex 129]	104 nM	35 nM	494 nM			
C#Cc1c(CCNc2cc(-c3ccc(C(=O)O)c(OC4CCC4)c3)ncn2)ccc2ccccc12 [Ex 131]	106 nM	68 nM	353 nM			
CCOc1cc(-c2cc(NCCc3ccc4ccccc4c3C)ncn2)ccc1OCCC(=O)O [Ex 134]	84 nM	63 nM	358 nM			
C#Cc1c(CCNc2cc(-c3ccc(OCC(=O)O)c(OCC)c3)ncn2)ccc2ccccc12 [Ex 140]	121 nM	95 nM	459 nM			
C#Cc1c(CCNc2cc(-c3ccc(C(=O)O)c(OCC)c3)ncn2)ccc2ccccc12 [Ex 141]	122 nM	131 nM	328 nM			
CCOc1cc(-c2cc(NCCc3cc4cccnc4c(C)c3Cl)ncn2)ccc1OCC(=O)O [Ex 179]	188 nM	309 nM	568 nM			
O=C(O)c1ccc(-c2cc(NCCc3cc4ccccc4cc3OC(F)F)ncn2)cc1OC1CCC1 [Ex 180]	188 nM	55 nM	692 nM			
COc1c(CCNc2cc(-c3ccc(C(=O)O)c(SC)c3)ncn2)cc2ccccc2c1Cl [Ex 186]	202 nM	194 nM	811 nM			
CCOc1cc(-c2cc(NCCc3c(F)cc4ncccc4c3F)ncn2)ccc1OCC(=O)O [Ex 191]	208 nM	279 nM	329 nM			
CCOc1cc(-c2cc(NCCc3ccc4sccc4c3)ncn2)ccc1OC(C)C(=O)O (stereo not shown) [Ex 202]	234 nM	77 nM	277 nM			
CCOc1cc(-c2cc(NCCc3cc4c(cc3C#N)OCCO4)ncn2)ccc1C(=O)O [Ex 203]	237 nM	352 nM	687 nM			
O=C(O)c1ccc(-c2cc(NCCc3ccc4cccc(F)c4c3)ncn2)cc1OC1CCC1 [Ex 231]	315 nM	286 nM	5650 nM			
CCOc1cc(-c2cc(NCCc3cc4ccccc4cc3Cl)ncn2)ccc1C(=O)O [Ex 279]	489 nM	743 nM	559 nM			
CCOc1cc(-c2cc(NCCc3cc4ccccc4cc3OC(C)C)ncn2)ccc1C(=O)O [Ex 284]	509 nM	125 nM	> 28100 nM			
CCOc1cc(-c2cc(NCCc3ccc4sccc4c3)nc(C)n2)ccc1CC(=O)O [Ex 308]	674 nM	866 nM	926 nM			
O=C(O)c1ccc(-c2cc(NCCc3c(F)cc4ccccc4c3F)ncn2)cc1OC1CCC1 [Ex 333]		128 nM		359 nM		
CSc1cc(-c2cc(NCCc3c(F)cc4ccccc4c3F)ncn2)ccc1C(=O)O [Ex 336]		113 nM		225 nM		
CCCCOc1cc(-c2cc(NCCc3cc(F)c4sccc4c3)ncn2)ccc1C(=O)O [Example 454, 2-Butoxy-4-{6-[2-(7-fluoro-benzo[b]thiophen-5-yl)-ethylamino]-pyrimidin-4-yl}-benzoic acid]			608 nM	88 nM	225 nM	212 nM
CCOc1cc(-c2cc(NCCc3cc(F)c4sccc4c3)ncn2)ccc1C(=O)NCC(C)(C)O [Example 463]		223 nM		934 nM		
(4-{6-[2-(4-Fluoro-benzo[b]thiophen-5-yl)-ethylamino]-pyrimidin-4-yl}-2-trifluoromethoxy-phenyl)-acetic acid [Example 489]		128 nM		231 nM		
